Molecules are shown by their SMILES.

In one test the target is T1, LZK (Homo sapiens, UniProt O43283).
T1 construct: 10 nM LZK, catalytic domain, Carna Biosiences in assay buffer; purchased Carna Biosciences ('Carna Biosiences' [sic])
T1 sequence (O43283 168-409 limits assumed): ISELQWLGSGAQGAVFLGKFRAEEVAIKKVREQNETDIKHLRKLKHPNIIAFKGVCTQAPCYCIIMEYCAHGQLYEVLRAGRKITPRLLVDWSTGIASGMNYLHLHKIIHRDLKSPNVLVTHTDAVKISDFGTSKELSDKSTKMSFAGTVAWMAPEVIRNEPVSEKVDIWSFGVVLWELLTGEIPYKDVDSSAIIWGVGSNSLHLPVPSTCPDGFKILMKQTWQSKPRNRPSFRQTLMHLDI
The experiment in a line: LZK biochemical assay (TR-FRET, MKK7 phosphorylation). The gist of the method: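 LZK catalytic domain (10 nM) phosphorylates His-MKK7 (15 nM) with 15 µM ATP, all final, for 90 min at RT in HEPES buffer pH 7.5 with MgCl2. Phospho-T275/S277 detected by TR-FRET (Eu anti-phospho donor, XL665 anti-His acceptor) after 16 h at 32 °C in EDTA stop buffer. Inhibition lowers the 665/Eu ratio.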

In the next test the target is T2, DLK (Homo sapiens, UniProt Q12852).
T2 construct: 10 nM DLK, catalytic domain, Carna Biosiences; purchased Carna Biosciences ('Carna Biosiences' [sic])
T2 sequence (Q12852 125-366 limits assumed): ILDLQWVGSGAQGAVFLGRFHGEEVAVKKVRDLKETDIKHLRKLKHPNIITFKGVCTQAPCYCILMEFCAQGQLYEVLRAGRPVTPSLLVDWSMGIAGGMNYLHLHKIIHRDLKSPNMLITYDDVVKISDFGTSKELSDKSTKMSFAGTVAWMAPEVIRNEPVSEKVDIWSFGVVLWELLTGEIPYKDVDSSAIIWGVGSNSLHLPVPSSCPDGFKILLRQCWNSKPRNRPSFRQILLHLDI
Description: DLK biochemical assay (TR-FRET, MKK7 phosphorylation). The gist of the method: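 DLK catalytic domain (10 nM) phosphorylates His-MKK7 (15 nM) at 60 μM ATP for 90 min at RT in pH 7.5 Hepes buffer (final concentrations). Phospho-T275/S277 is detected by TR-FRET (Eu anti-phospho donor, XL665 anti-His acceptor) after 16 h at 37° C (1536 format) or 4° C (384 format).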
(TR-FRET usually uses a lanthanide donor and a delayed reading to cut background.)

On to `Nc1nc2c(-c3ccc(=O)n(CC(F)F)c3)cc(-c3cnn(C(c4ccc(C(F)(F)F)nc4)C4CCOCC4)c3)cn2n1` (single isomer, unassigned) [II-158, 5-[2-Amino-6-(1-{tetrahydro-2H-pyran-4-yl[6-(trifluoromethyl)pyridin-3-yl]methyl}-1H-pyrazol-4-yl)[1,2,4]triazolo[1,5-a]pyridin-8-yl]-1-(2,2-difluoroethyl)pyridin-2(1H)-one], for which the IC50 at LZK stood at 1.2 nM; on DLK, 0.4 nM.
In the case of `CCC(c1ccc(C(F)(F)F)cc1)n1cc(-c2cc(-c3cnn(CC(F)(F)F)c3)n3nc(N)nc3c2)cn1` (centres unmarked) [II-129], the results for the IC50 on LZK and at DLK were 170 nM and 69 nM, respectively.
As to `CCC(c1ccc(C(F)(F)F)nc1)n1cc(-c2cc(-c3ccc(C(F)(F)F)nc3)c3nc(N)nn3c2)cn1` (single isomer, unassigned) [II-38, 8-[6-(Trifluoromethyl)pyridin-3-yl]-6-(1-{1-[6-(trifluoromethyl)pyridin-3-yl]propyl}-1H-pyrazol-4-yl)[1,2,4]triazolo[1,5-a]pyridin-2-amine], the IC50 against LZK was 120 nM; on DLK, 56 nM.
As for `CC(C)C(c1ccc(C(F)F)nc1)n1cc(-c2cc(-c3ccc(C4CC4)nc3)n3nc(N)nc3c2)cn1` (single isomer, unassigned) [II-53, 5-(6-Cyclopropylpyridin-3-yl)-7-(1-{1-[6-(difluoromethyl)pyridin-3-yl]-2-methylpropyl}-1H-pyrazol-4-yl)[1,2,4]triazolo[1,5-a]pyridin-2-amine], the IC50 is 48 nM against LZK and 33 nM on DLK.
`Nc1nc2c(-c3cc(CO)ccc3Cl)cc(-c3cnn(C(c4ccc(C(F)(F)F)nc4)C4CCOCC4)c3)cn2n1` (racemic) [II-4, {3-[2-Amino-6-(1-{tetrahydro-2H-pyran-4-yl[6-(trifluoromethyl)pyridin-3-yl]methyl}-1H-pyrazol-4-yl)[1,2,4]triazolo[1,5-a]pyridin-8-yl]-4-chlorophenyl}methanol]: the results for the IC50 against LZK and on DLK were 5.9 nM and 7 nM, respectively.
`Nc1nc2cc(-c3cnn(C(c4ccc(C(F)F)nc4)C4CCOCC4)c3)cc(-c3ccc(C(F)(F)F)nc3)n2n1` (single isomer, unassigned) [II-78, 7-(1-{[6-(Difluoromethyl)pyridin-3-yl](tetrahydro-2H-pyran-4-yl)methyl}-1H-pyrazol-4-yl)-5-[6-(trifluoromethyl)pyridin-3-yl][1,2,4]triazolo[1,5-a]pyridin-2-amine]: the values for the IC50 at LZK and against DLK were 5.3 nM and 5.2 nM, respectively.
Consider `CC(C)C(c1ccc(C(F)(F)F)nc1)n1cc(-c2cc(-c3ccc(C4CC4)nc3)c3nc(N)nn3c2)cn1` (racemic) [II-43, 8-(6-Cyclopropylpyridin-3-yl)-6-(1-{2-methyl-1-[6-(trifluoromethyl)pyridin-3-yl]propyl}-1H-pyrazol-4-yl)[1,2,4]triazolo[1,5-a]pyridin-2-amine], for which the IC50 against LZK is 26 nM; against DLK, 4.2 nM.
As to `CC(C)C(c1ccc(C(F)(F)F)nc1)n1cc(-c2cc(-c3ccc(C(F)F)nc3)n3nc(N)nc3c2)cn1` (single isomer, unassigned) [II-72, 5-[6-(Difluoromethyl)pyridin-3-yl]-7-(1-{2-methyl-1-[6-(trifluoromethyl)pyridin-3-yl]propyl}-1H-pyrazol-4-yl)[1,2,4]triazolo[1,5-a]pyridin-2-amine], the IC50 against LZK stood at 17 nM; against DLK, 16 nM.
For `CC(C)C(c1ccc(C(F)(F)F)nc1)n1cc(-c2cc(-c3ccc(C4CC(F)(F)C4)nc3)n3nc(N)nc3c2)cn1` (single isomer, unassigned) [II-74, 5-[6-(3,3-Difluorocyclobutyl)pyridin-3-yl]-7-(1-{2-methyl-1-[6-(trifluoromethyl)pyridin-3-yl]propyl}-1H-pyrazol-4-yl)[1,2,4]triazolo[1,5-a]pyridin-2-amine], the results for the IC50 against LZK and at DLK were 170 nM and 510 nM, respectively.
For `CC[C@@H](c1ccccc1)n1cc(-c2cc(-c3ccc(=O)[nH]c3)n3nc(N)nc3c2)cn1` [II-178, 5-(2-Amino-7-{1-[(1S)-1-phenylpropyl]-1H-pyrazol-4-yl}[1,2,4]triazolo[1,5-a]pyridin-5-yl)pyridin-2(1H)-one], the 50% inhibitory concentration (IC50) at LZK worked out at 74 nM; on DLK, 15 nM.
For `Nc1nc2c(-c3cc(CO)ccc3Cl)cc(-c3cnn(C(c4ccc(C(F)(F)F)nc4)C4CCOCC4)c3)cn2n1` (single isomer, unassigned) [II-5, {3-[2-Amino-6-(1-{tetrahydro-2H-pyran-4-yl[6-(trifluoromethyl)pyridin-3-yl]methyl}-1H-pyrazol-4-yl)[1,2,4]triazolo[1,5-a]pyridin-8-yl]-4-chlorophenyl}methanol], the results for the IC50 on LZK and on DLK were 1.7 nM and 2.3 nM, respectively.
As for `CCC(c1ccc(OC(F)(F)F)nc1)n1cc(-c2cc(-c3ccc(=O)n(CC(F)(F)F)c3)c3nc(N)nn3c2)cn1` (centres unmarked) [II-163], the 50% inhibitory concentration (IC50) amounted to 25 nM on LZK and 4.9 nM against DLK.
`Nc1nc2cc(-c3cnn(C(c4ccc(C(F)(F)F)nc4)C4CCOCC4)c3)cc(-c3cnn(CC(F)(F)F)c3)n2n1` (single isomer, unassigned) [II-150, 7-(1-{Tetrahydro-2H-pyran-4-yl[6-(trifluoromethyl)pyridin-3-yl]methyl}-1H-pyrazol-4-yl)-5-[1-(2,2,2-trifluoroethyl)-1H-pyrazol-4-yl][1,2,4]triazolo[1,5-a]pyridin-2-amine]: the IC50 amounted to 4.9 nM against LZK and 1.4 nM at DLK.
On the same counts, the results for `Nc1nc2cc(-c3cnn(C(c4ccc(C(F)(F)F)nc4)C4CCOCC4)c3)cc(-c3ccc(=O)n(CC(F)(F)F)c3)n2n1` (centres unmarked) [II-191] are 6.3 nM and 3.2 nM.
On the same counts, the results for `CC(C)C(c1ccc(C(F)F)nc1)n1cc(-c2cc(-c3ccc(C4CC4)nc3)n3nc(N)nc3c2)cn1` (single isomer, unassigned) [II-54, 5-(6-Cyclopropylpyridin-3-yl)-7-(1-{1-[6-(difluoromethyl)pyridin-3-yl]-2-methylpropyl}-1H-pyrazol-4-yl)[1,2,4]triazolo[1,5-a]pyridin-2-amine] are 8.9 nM and 4 nM.
For `CCC(c1ccc(C(F)F)nc1)n1cc(-c2cc(-c3ccc(C(F)(F)F)nc3)n3nc(N)nc3c2)cn1` (single isomer, unassigned) [II-63, 7-(1-{1-[6-(Difluoromethyl)pyridin-3-yl]propyl}-1H-pyrazol-4-yl)-5-[6-(trifluoromethyl)pyridin-3-yl][1,2,4]triazolo[1,5-a]pyridin-2-amine], the IC50 at LZK was 51 nM; at DLK, 97 nM.
`CCc1nnc(-c2cc(-c3cnn(Cc4ccccc4)c3)cn3nc(N)nc23)s1` [II-197, 6-(1-Benzyl-1H-pyrazol-4-yl)-8-(5-ethyl-1,3,4-thiadiazol-2-yl)[1,2,4]triazolo[1,5-a]pyridin-2-amine]: the half-inhibitory concentration (IC50) amounted to 690 nM against LZK and 240 nM at DLK.
The like results for `Nc1nc2c(-c3cn(CC(F)(F)F)c(=O)cn3)cc(-c3cnn(C(c4ccc(C(F)(F)F)nc4)C4CCOCC4)c3)cn2n1` (centres unmarked) [II-166] were, in that order, 27 nM and 4 nM.
For `CCC(c1ccc(N2CCOCC2)cc1)n1cc(-c2cc(-c3cnn(CC(F)(F)F)c3)c3nc(N)nn3c2)cn1` (single isomer, unassigned) [II-103, 6-(1-{1-[4-(Morpholin-4-yl)phenyl]propyl}-1H-pyrazol-4-yl)-8-[1-(2,2,2-trifluoroethyl)-1H-pyrazol-4-yl][1,2,4]triazolo[1,5-a]pyridin-2-amine], the half-maximal inhibitory concentration (IC50) against LZK is 160 nM; on DLK it was 64 nM.
The like results for `CC(C)(O)c1cccc(-c2cc(-c3cnn(C(c4ccc(C(F)(F)F)nc4)C4CCOCC4)c3)cn3nc(N)nc23)c1` (single isomer, unassigned) [II-12, 2-{3-[2-Amino-6-(1-{tetrahydro-2H-pyran-4-yl[6-(trifluoromethyl)pyridin-3-yl]methyl}-1H-pyrazol-4-yl)[1,2,4]triazolo[1,5-a]pyridin-8-yl]phenyl}propan-2-ol] were, in that order, 1.2 nM and 0.6 nM.
Consider `Nc1nc2c(-c3ccn(CC(F)(F)F)c(=O)c3)cc(-c3cnn(C(c4ccc(C(F)(F)F)nc4)C4CCOCC4)c3)cn2n1` (centres unmarked) [II-175], for which the IC50 against LZK was determined as 13 nM; at DLK it was 2.7 nM.
Turning to `CS(=O)(=O)c1cccc(-c2cc(-c3cnn(C(c4ccc(C(F)(F)F)nc4)C4CCOCC4)c3)cn3nc(N)nc23)c1` (single isomer, unassigned) [II-14, 8-[3-(Methylsulfonyl)phenyl]-6-(1-{tetrahydro-2H-pyran-4-yl[6-(trifluoromethyl)pyridin-3-yl]methyl}-1H-pyrazol-4-yl)[1,2,4]triazolo[1,5-a]pyridin-2-amine], the IC50 came to 1.3 nM against LZK and 0.6 nM against DLK.

Usually IC50 stands for the midpoint of a concentration-inhibition curve.

The values are drawn from US20230086702A1, “SUBSTITUTED 2-AMINO-PYRAZOLYL-[1,2,4]TRIAZOLO[1,5A]PYRIDINE DERIVATIVES AND USE THEREOF” (The Johns Hopkins University, priority 2019, published 2023).
